Laboratory results reported in article PMC10594875, “One-Pot De Novo Synthesis of [4Fe-4S] Proteins Using a Recombinant SUF System under Aerobic Conditions” (ACS Synthetic Biology, 2023).

Biological target: T1, Aconitase (AcnA) (Escherichia coli, UniProt P25516)
T1 construct: cell-free (PUREfrex) synthesis, N-His6 tag removed with HRV protease, [4Fe-4S] cluster matured by SUF system
Assay: LC-MS of citrate consumption, isocitrate dehydrogenase-coupled
Assay type: biochemical
Conditions: coupled with NADP-dependent isocitrate dehydrogenase

T1 sequence (P25516 2-891): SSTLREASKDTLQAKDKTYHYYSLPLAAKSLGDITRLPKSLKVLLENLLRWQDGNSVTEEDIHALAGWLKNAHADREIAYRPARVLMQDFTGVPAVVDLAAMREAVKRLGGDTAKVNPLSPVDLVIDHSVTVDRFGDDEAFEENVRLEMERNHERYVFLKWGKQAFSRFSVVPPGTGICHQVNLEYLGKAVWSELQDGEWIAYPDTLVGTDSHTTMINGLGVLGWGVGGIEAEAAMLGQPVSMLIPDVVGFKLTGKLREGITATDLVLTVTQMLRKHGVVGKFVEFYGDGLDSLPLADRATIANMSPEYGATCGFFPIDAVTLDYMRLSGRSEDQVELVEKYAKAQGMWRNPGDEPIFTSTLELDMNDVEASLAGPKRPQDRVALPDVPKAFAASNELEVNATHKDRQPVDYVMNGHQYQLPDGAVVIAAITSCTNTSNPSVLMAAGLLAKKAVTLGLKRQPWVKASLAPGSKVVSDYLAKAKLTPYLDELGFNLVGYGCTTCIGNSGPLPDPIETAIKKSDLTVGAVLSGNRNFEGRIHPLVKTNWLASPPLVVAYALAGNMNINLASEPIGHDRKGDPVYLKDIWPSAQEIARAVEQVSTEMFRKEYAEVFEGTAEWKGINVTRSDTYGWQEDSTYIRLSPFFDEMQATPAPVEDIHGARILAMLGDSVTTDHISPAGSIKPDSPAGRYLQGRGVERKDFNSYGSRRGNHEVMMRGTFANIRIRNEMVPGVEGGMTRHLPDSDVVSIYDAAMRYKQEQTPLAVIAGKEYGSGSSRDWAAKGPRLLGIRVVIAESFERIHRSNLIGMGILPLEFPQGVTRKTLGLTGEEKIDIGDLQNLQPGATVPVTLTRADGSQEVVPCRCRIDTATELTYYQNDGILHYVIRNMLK

For `O=C(O)CC(O)(CC(=O)O)C(=O)O` [citrate], the “LC-MS of citrate consumption, isocitrate dehydrogenase-coupled” value was “concurring citrate consumption and alpha-ketoglutarate production in the assays with AcnA purified”.
